Values of other authors as cited in patent US20240041983A1, “IMPROVED PHARMACEUTICAL FORMULATIONS OF GLP-1 RECEPTOR AGONISTS” (CYPRUMED GMBH, priority 2020, published 2024).

Conditions: in humans

For semaglutide, the t½ is listed as ~1 week.
